Assay results published in patent US4175081A, “5-Substituted thiadiazole ureas” (priority 1977, dated 1979).

What was measured:
Cotton (CT) [1] = assay: Post-emergence herbicide test; format: in vivo, Gossypium hirsutum var. DPL smooth leaf; settings: Gossypium hirsutum, post-emergence, 336 h, two weeks after treatment; for pest or weed control at 8966.8 g/ha: 8 lb/acre
In short: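 Cotton (Gossypium hirsutum var. DPL smooth leaf) was grown in 3' plastic pots of potting soil, four seeds per pot, planted at a depth equal to the seed diameter and watered by sub-irrigation. At the stage of expanded cotyledons with the first true leaf 1' long, plants were sprayed post-emergence in a hood with a fixed nozzle over a moving belt. Percent control was rated visually two weeks later.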

Bean (BN) [2] = assay: Pre-emergence herbicide test; format: in vivo, Phaseolus vulgaris var. Black Valentine; settings: Phaseolus vulgaris, 336 h, 8 lb/acre, two weeks after treatment
In short: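 Black Valentine bean was seeded in potting soil one day before spraying. Compound was applied pre-emergence at 8 lbs/acre (also 4 lbs/acre) in 38 gallons per acre. Plants were sub-irrigated and injury or control was rated visually after two weeks.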

Corn (CN) [3] = assay: Pre-emergence herbicide test; format: in vivo; settings: Zea mays, 336 h, 8 lb/acre, two weeks after treatment
In short: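 Four corn seeds per pot, sown at seed-diameter depth one day before spraying, got soil surface treatment at 8 lbs/acre (4 lbs/acre formulations also prepared) in 38 gallons/acre. Pots were greenhouse-held with sub-irrigation only. Injury or control was scored visually two weeks after treatment.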

[4] = test system: variety of crops and weed species; assay: Pre- and post-emergence herbicide tests, overall assessment of Tables III-VI; format: in vivo; settings: data of Tables III-VI
In short: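 Crops and weeds grown in potting soil were sprayed at 8 lbs. compound per acre in 38 gallons per acre, pre-emergence pots seeded one day before treatment. Injury or control was visually rated two weeks after treatment.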

Johnson grass (JG) [5] = assay: Post-emergence herbicide test; format: in vivo, Sorgum helepense; settings: Sorghum halepense, 336 h, two weeks after treatment; for pest or weed control at 8966.8 g/ha: 8 lb/acre
In short: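 Greenhouse pot-grown seedlings sprayed post-emergence at 8 lbs compound per acre (some at 4 lbs/acre) in 38 gallons per acre spray volume. Sub-irrigated thereafter. Injury/control rated visually two weeks after treatment.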

Turnip (TP) [6] = assay: Pre-emergence herbicide test; format: in vivo, Brassica sp.; settings: Brassica rapa, pre-emergence, 336 h; 8 lb/acre; two weeks after treatment
In short: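 Turnip (Brassica sp.) seeds were surface sown in 3' plastic pots of potting soil, covered with a thin layer of screened soil, and sub-irrigated in greenhouse trays. Pots were seeded one day ahead of treatment, sprayed pre-emergence under a hood with a fixed nozzle and moving belt, then kept in the greenhouse.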

Crabgrass (CG) [7] = assay: Post-emergence herbicide test; format: in vivo, Digitaria sanquinalis; settings: Digitaria sanguinalis, post-emergence, 336 h, two weeks after treatment; for pest or weed control at 8966.8 g/ha: 8 lb/acre
In short: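 Crabgrass (Digitaria sanquinalis) was surface seeded individually in 3' plastic pots of potting soil, covered with screened soil, and watered by sub-irrigation in greenhouse trays. Planting was staggered so seedlings reached the target stage together. Post-emergence sprays were applied in a hood with a removable belt and fixed nozzle, and control was visually rated two weeks after treatment.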

Amaranth pigweed (PW) [8] = assay: Pre-emergence herbicide test; format: in vivo, Amaranthus retroflexus; settings: 336 h, 8 lb/acre, two weeks after treatment
In short: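 Pigweed was surface-seeded in potted soil one day before spraying at 8 lbs compound per acre, or 4 lbs/acre, in 38 gallons per acre. Pots were kept in the greenhouse with sub-irrigation only; injury or control was rated visually two weeks after treatment.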

Crabgrass (CG) [9] = assay: Pre-emergence herbicide test; format: in vivo, Digitaria sanquinalis; settings: Digitaria sanguinalis, pre-emergence, 336 h; 8 lb/acre; two weeks after treatment
In short: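 Crabgrass (Digitaria sanquinalis) was surface seeded in 3' plastic pots of potting soil, covered with screened soil, and watered by sub-irrigation in greenhouse trays. Pots were seeded one day before spraying in a hood with a moving belt and fixed nozzle. Plants stayed in the greenhouse on sub-irrigation, and pre-emergence control was rated visually two weeks after treatment.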

[10] = test system: Yellow foxtail grass (YF); assay: Pre-emergence herbicide test; format: in vivo, Setaria glauca; settings: Setaria, 336 h, 8 lb/acre, two weeks after treatment
In short: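 Seeds surface-sown in potting soil one day before spraying; compounds applied pre-emergence at 8 or 4 lbs/acre in 38 gallons/acre spray. Pots held in greenhouse with sub-irrigation only. Injury or control rated visually two weeks after treatment.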

Amaranth pigweed (PW) [11] = assay: Post-emergence herbicide test; format: in vivo, Amaranthus retroflexus; settings: 336 h, two weeks after treatment; for pest or weed control at 8966.8 g/ha: 8 lb/acre
In short: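 Pot-grown pigweed was sprayed post-emergence at the 1–2 true-leaf stage with compound at rates equivalent to 8 lbs per acre (formulations also prepared for 4 lbs/acre) in 38 gallons per acre, using a hood with fixed nozzle. Plants were sub-irrigated in the greenhouse, and injury or control was rated visually two weeks after treatment.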

Bean (BN) [12] = assay: Post-emergence herbicide test; format: in vivo, Phaseolus vulgaris var. Black Valentine; settings: Phaseolus vulgaris, post-emergence, 336 h, two weeks after treatment; for pest or weed control at 8966.8 g/ha: 8 lb/acre
In short: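 Snapbean (Phaseolus vulgaris var. Black Valentine) was tested post-emergence. Four seeds were sown in 3' plastic pots of potting soil at a depth equal to the seed diameter, then sub-irrigated in greenhouse trays. Planting dates were staggered so plants were sprayed once primary leaves had expanded, with the growing point at the primary leaf nodes.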

Barnyard grass (BG) [13] = assay: Pre-emergence herbicide test; format: in vivo; settings: Echinochloa crus-galli, 336 h, 8 lb/acre, two weeks after treatment
In short: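 Barnyard grass surface-seeded in potting soil and sprayed pre-emergence one day after seeding, at 8 or 4 lb compound/acre in 38 gal/acre spray volume. Pots kept in greenhouse with sub-irrigation only; injury or control rated visually two weeks after treatment.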

Turnip (TP) [14] = assay: Post-emergence herbicide test; format: in vivo, Brassica sp.; settings: Brassica rapa, post-emergence, 336 h, two weeks after treatment; for pest or weed control at 8966.8 g/ha: 8 lb/acre
In short: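 A greenhouse post-emergence herbicide test on turnip. Seeds were sown on the surface of potting soil in 3' plastic pots, lightly covered with screened soil and watered from below. Planting was timed so seedlings had 1 or 2 true leaves above the cotyledons at spraying, done in a hood with a fixed nozzle. Control or injury was scored by eye after two weeks.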

Corn (CN) [15] = assay: Post-emergence herbicide test; format: in vivo; settings: Zea mays, 336 h, two weeks after treatment; for pest or weed control at 8966.8 g/ha: 8 lb/acre
In short: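 Greenhouse seedlings grown in potting soil and sprayed post-emergence at 8 lbs compound/acre (formulations also made for 4 lbs/acre) in 38 gallons/acre spray volume. Watering by sub-irrigation only. Injury or control rated visually two weeks after treatment.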

Johnson grass (JG) [16] = assay: Pre-emergence herbicide test; format: in vivo, Sorgum helepense; settings: Sorghum halepense, 336 h, 8 lb/acre, two weeks after treatment
In short: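 Pots seeded one day before spraying; compound applied pre-emergence at 8 lbs/acre (or 4 lbs/acre) in 38 gallons/acre spray volume. Sub-irrigated in greenhouse; injury/control rated visually two weeks after treatment.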

Barnyard grass (BG) [17] = assay: Post-emergence herbicide test; format: in vivo; settings: Echinochloa crus-galli, 336 h, two weeks after treatment; for pest or weed control at 8966.8 g/ha: 8 lb/acre
In short: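 Greenhouse pot-grown barnyard grass seedlings sprayed post-emergence at 8 lbs active compound per acre (some at 4 lbs/acre) in 38 gallons per acre, then sub-irrigated. Injury or control rated visually two weeks after treatment.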

Cotton (CT) [18] = assay: Pre-emergence herbicide test; format: in vivo, Gossypium hirsutum var. DPL smooth leaf; settings: Gossypium hirsutum, 336 h, 8 lb/acre, two weeks after treatment
In short: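 Crop and weed species seeded one day before treatment, then sprayed pre-emergence at 8 lbs actual compound per acre (also 4 lbs/acre formulations) in 38 gallons per acre. Pots kept in greenhouse with sub-irrigation only; injury or control visually rated two weeks after treatment.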

[19] = test system: Yellow foxtail grass (YF); assay: Post-emergence herbicide test; format: in vivo, Setaria glauca; settings: Setaria, 336 h, two weeks after treatment; for pest or weed control at 8966.8 g/ha: 8 lb/acre
In short: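 Potted seedlings grown in greenhouse, planting staggered to reach the target stage together, then sprayed post-emergence at 8 lbs actual compound/acre in 38 gallons/acre (4 lbs/acre formulations also prepared). Sub-irrigated afterwards. Injury or control rated visually two weeks after treatment.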

SMILES	pest or weed control at 8966.8 g/ha (Cotton (CT) [1])	pest or weed control at 8966.8 g/ha (Bean (BN) [2])	pest or weed control at 8966.8 g/ha (Corn (CN) [3])	herbicidal effectiveness / selectivity, in words [4]	pest or weed control at 8966.8 g/ha (Johnson grass (JG) [5])	pest or weed control at 8966.8 g/ha (Turnip (TP) [6])	pest or weed control at 8966.8 g/ha (Crabgrass (CG) [7])	pest or weed control at 8966.8 g/ha (Amaranth pigweed (PW) [8])	pest or weed control at 8966.8 g/ha (Crabgrass (CG) [9])	pest or weed control at 8966.8 g/ha [10]	pest or weed control at 8966.8 g/ha (Amaranth pigweed (PW) [11])	pest or weed control at 8966.8 g/ha (Bean (BN) [12])	pest or weed control at 8966.8 g/ha (Barnyard grass (BG) [13])	pest or weed control at 8966.8 g/ha (Turnip (TP) [14])	pest or weed control at 8966.8 g/ha (Corn (CN) [15])	pest or weed control at 8966.8 g/ha (Johnson grass (JG) [16])	pest or weed control at 8966.8 g/ha (Barnyard grass (BG) [17])	pest or weed control at 8966.8 g/ha (Cotton (CT) [18])	pest or weed control at 8966.8 g/ha [19]	other results
CN(C)C(=O)Nc1nnc(C(F)(F)F)s1 [Example 2, 1,1-Dimethyl-3-[5-Trifluoromethyl-2-(1,3,4-Thiadiazolyl)] Urea]	90%	80%	50%	extremely effective when applied to a variety of crops and weed species	40%	100%	60%	90%	90%	90%	90%	60%	90%	80%	100%	90%	60%	70%	60%	pest or weed control at 2241.7 g/ha (Cotton (CT) [1]; 2 lb/acre): 100%; pest or weed control at 4483.4 g/ha (Cotton (CT) [1]; 4 lb/acre): 90%; pest or weed control (Johnson grass (JG) [5]; 2 lb/acre): 90%; pest or weed control at 4483.4 g/ha (Johnson grass (JG) [5]; 4 lb/acre): 30%; pest or weed control (Crabgrass (CG) [7]; 2 lb/acre): 100%; pest or weed control at 4483.4 g/ha (Crabgrass (CG) [7]; 4 lb/acre): 80%; pest or weed control at 2241.7 g/ha (Amaranth pigweed (PW) [11]; 2 lb/acre): 100%; pest or weed control at 4483.4 g/ha (Amaranth pigweed (PW) [11]; 4 lb/acre): 100%; pest or weed control at 2241.7 g/ha (Bean (BN) [12]; 2 lb/acre): 80%; pest or weed control at 4483.4 g/ha (Bean (BN) [12]; 4 lb/acre): 70%; pest or weed control at 2241.7 g/ha (Turnip (TP) [14]; 2 lb/acre): 100%; pest or weed control at 4483.4 g/ha (Turnip (TP) [14]; 4 lb/acre): 90%; pest or weed control (Corn (CN) [15]; 2 lb/acre): 100%; pest or weed control at 4483.4 g/ha (Corn (CN) [15]; 4 lb/acre): 100%; pest or weed control at 2241.7 g/ha (Barnyard grass (BG) [17]; 2 lb/acre): 90%; pest or weed control at 4483.4 g/ha (Barnyard grass (BG) [17]; 4 lb/acre): 90%; pest or weed control ([19]; 2 lb/acre): 90%; pest or weed control at 4483.4 g/ha ([19]; 4 lb/acre): 90%
CSc1nnc(N(C)C(=O)N(C)C)s1 [Example 5, 1,1,3-trimethyl-3-[5-methylthio-2-(1,3,4-thiadiazolyl)] urea]	100%	90%	70%	extremely effective when applied to a variety of crops and weed species	90%	100%	100%	100%	100%	90%	100%	100%	80%	100%	100%	50%	100%	90%	100%	
C=CCNC(=O)Nc1nnc(C(F)(F)F)s1 [Example 12]	90%	10%	10%	control post-emergence growth, while have little effect in regard to pre-emergence	40%	10%	50%	10%	20%	10%	70%	100%	10%	70%	40%	10%	50%	30%	40%	
CNC(=O)Nc1nnc(COC)s1 [Example 25]	100%	70%	10%	more selective when applied to a certain crop or weed species	30%	10%	30%	10%	20%	10%	40%	100%	10%	30%	30%	10%	20%	100%	20%	
